The values that follow come from patent publication US20210317099A1, “SAFER, POTENT, AND FAST ACTING ANTIMICROBIAL AGENTS” (Purdue Research Foundation, priority 2020, published 2021).

What is called MIC is the smallest concentration in the dilution series that meets the test's criterion for growth inhibition.

Each structure is given as a SMILES string. In brackets after ≈: the same amount, converted by molar mass. Some results are limits rather than exact numbers.

The first assay has as its system Staphylococcus aureus NRS384 (MRSA USA300). The assay can be described thus: Initial MIC screening, broth microdilution (CLSI). To be noted: MRSA USA300, Table 1 assay. It counts as cell-based. The method, then: Method: The minimum inhibitory concentration (MIC) of the compounds 1-187, and control antibiotics (vancomycin, linezolid) was determined using the broth microdilution method against methicillin-resistant Staphylococcus aureus (MRSA) USA 300 using the broth microdilution method according to the guidelines outlined by the Clinical and Laboratory Standards Institute (CLSI). MRSA strain was cultivated on Tryptic soy agar plates and let grow for 24 hours at 37° C. under aerobic conditions. Bacterial suspension equivalent to 0.5 McFarland standard was prepared and diluted in cation-adjusted Mueller-Hinton broth (CAMHB) to attain a bacterial concentration of 5×10^5 CFU/ml and seeded in 96-well plates. The desired concentrations of each drug and compound were added in the first row of the 96-well plates and serially diluted to achieve a concentration gradient from 64 μg/ml to 0.5 μg/mL.
(In general: Broth dilution looks for growth in wells or tubes with falling amounts of substance.)
Take `O=C1O[C@H](c2ccc3ccccc3c2)[C@H](c2ccc3ccccc3c2)C1CN1CCCCC1` (some centres unmarked) [Compound 167]: the “potency compared with control antibiotic” value is “potency comparable to vancomycin”.

The same assay, now with this note: Staphylococcus aureus NRS384 (MRSA USA300), broth microdilution, visual reading.
In the case of `C=C1C(=O)O[C@H](c2ccnc3ccccc23)[C@H]1c1ccccc1` [Compound 113], the MIC is 16 µg/mL (≈ 53.1 µM).
In the case of `C=C1C(=O)O[C@H](c2ccc3ccccc3c2)[C@@H]1c1ccccc1` [Compound 21], the MIC was 32 µg/mL (≈ 107 µM).
`C=C1C(=O)O[C@H](c2ccccc2)[C@@H]1c1ccccc1` [Compound 150] had an MIC of 16 µg/mL (≈ 63.9 µM).
Regarding `C=C1C(=O)O[C@H](c2ccccc2)[C@@H]1c1ccc2ccccc2c1` [Compound 112], the MIC stood at 64 µg/mL (≈ 213 µM).
The same measure, in the same setting: the figure for `CCN(CC)CC1C(=O)O[C@H](c2ccc3ccccc3c2)[C@H]1c1ccccc1` (some centres unmarked) [Compound 108] is above 128 µg/mL; for `C=C1C(=O)O[C@H](c2ccccc2)[C@@H]1c1ccc2ccccc2c1` [Compound 107] it is 8 µg/mL (≈ 26.6 µM).

The assay is the same for the next values; noted with them: Staphylococcus aureus, Staphylococcus aureus NRS384 (MRSA USA300), broth microdilution, visual reading; read-out: MIC.
Turning to `C=C1C(=O)O[C@H](c2c(OC)cc(OC)cc2OC)[C@@H]1c1ccc(C(F)(F)F)cc1` [Compound 61], the MIC was above 128 µg/mL.
For the molecule `C=C(C(=O)OC)C(c1ccccc1)C(O)c1ccc2ccccc2c1` (centres unmarked) [Compound 143], the MIC is 16 µg/mL (≈ 48.1 µM).
As to `Cc1ccc([C@H]2OC(=O)C(CN(C)C)[C@H]2c2ccccc2)cc1` (some centres unmarked) [Compound 18], the MIC was 128 µg/mL (≈ 414 µM).
`C=C1C(=O)O[C@H](C2CCCCC2)[C@@H]1c1ccc(C)cc1` [Compound 93]: the MIC is above 128 µg/mL.
For `CCN(CC)C[C@@H]1C(=O)O[C@H](c2ccccc2)[C@@H]1c1ccccc1` [Compound 62], the MIC turned out to be 16 µg/mL (≈ 49.5 µM).
Take `CC1(C)CC(CN2CCCCC2)C(=O)O1` (centres unmarked) [Compound 80]: the MIC is above 128 µg/mL.
For `O=C1O[C@H](c2ccc3ccccc3c2)[C@H](c2ccc3ccccc3c2)C1CN1CCCCC1` (some centres unmarked) [Compound 167], the MIC was 2 µg/mL (≈ 4.59 µM).
With `C=C1C(=O)O[C@H](c2cccnc2)[C@@H]1C` [Compound 119], the MIC is above 128 µg/mL.
In the case of `O=C1O[C@H](c2cccc3ccccc23)[C@H](c2cccc3ccccc23)C1CN1CCCCC1` (some centres unmarked) [Compound 163], the MIC was above 64 µg/mL.
`C=C1C(=O)O[C@H](c2ccccc2)[C@@H]1c1ccc(OC)cc1` [Compound 72]: the minimal inhibitory concentration (MIC) was 64 µg/mL (≈ 228 µM).
Same read-out and setting: to `C=C1C(=O)O[C@H](/C=C/C)[C@@H]1c1ccc(Br)cc1` [Compound 59] belongs 32 µg/mL (≈ 109 µM); to `C=C1C(=O)O[C@H](c2ccc3ccccc3c2)[C@H]1c1ccccc1` [Compound 110], 8 µg/mL (≈ 26.6 µM).
As for `O=C1O[C@H](c2ccccc2)[C@H](c2ccc3ccccc3c2)C1CN1CCCCC1` (some centres unmarked) [Compound 161], the MIC turned out to be 16 µg/mL (≈ 41.5 µM).
As for `C=C1C(=O)O[C@H](c2ccc(OC)cc2)[C@@H]1c1ccc(C)cc1` [Compound 74], the MIC is 16 µg/mL (≈ 54.4 µM).
Same read-out and setting: the figure for `O=C1O[C@H](c2cccc3ccccc23)[C@H](c2ccc3ccccc3c2)C1CN1CCCCC1` (some centres unmarked) [Compound 164] is above 64 µg/mL.
Regarding `C=C1C(=O)OC(C2CCCCC2)C1c1ccccc1` (centres unmarked) [Compound 181], the MIC is above 64 µg/mL.
As for `C=C1C(=O)O[C@H](c2ccccc2)[C@@H]1C` [Compound 97], the MIC came to 16 µg/mL (≈ 85 µM).
As to `C=C1C(=O)O[C@H](c2cc(OC)c(OC)c(OC)c2)[C@@H]1c1ccc(C(F)(F)F)cc1` [Compound 92], the MIC turned out to be 32 µg/mL (≈ 78.4 µM).
For the molecule `C=C1C(=O)O[C@H](c2cccc(OC)c2)[C@@H]1c1ccc(C#N)cc1` [Compound 19], the MIC stood at 64 µg/mL (≈ 210 µM).
With `C=C1C(=O)O[C@H](c2ccc(OC)cc2)[C@@H]1c1ccccc1B1OC(C)(C)C(C)(C)O1` [Compound 87], the minimum inhibitory concentration (MIC) is above 128 µg/mL.
Regarding `C=C1C(=O)O[C@H](c2ccc(C)cc2)[C@@H]1c1ccc(C)cc1` [Compound 67], the MIC was found to be 64 µg/mL (≈ 230 µM).
For the molecule `C=C1C(=O)O[C@H](c2cnc3ccccc3c2)[C@H]1c1ccccc1` [Compound 99], the MIC is 32 µg/mL (≈ 106 µM).
Take `C=C1C(=O)O[C@H](c2ccnc3ncccc23)[C@H]1c1ccccc1` [Compound 121]: the MIC was found to be 32 µg/mL (≈ 106 µM).
For `C=C1C(=O)O[C@@H]2c3c(ccc4ccccc34)C(C)C[C@H]12` (some centres unmarked) [Compound 94], the MIC amounted to 32 µg/mL (≈ 121 µM).
The same measure, in the same setting: to `COc1cc([C@H]2OC(=O)C(CN3CCCCC3)[C@H]2c2ccccc2Br)ccc1OCc1ccccc1` (some centres unmarked) [Compound 27] belongs above 128 µg/mL.
As to `C=C1C(=O)OC(C2=CC=CCC2)C1C1CCCCC1` (centres unmarked) [Compound 185], the MIC is above 64 µg/mL.
For the molecule `C=C(C(=O)OC)C(c1ccc2ccccc2c1)C(O)c1ccccc1` (centres unmarked) [Compound 147], the MIC amounted to 8 µg/mL (≈ 24.1 µM).
Consider `CC(=O)Oc1cc([C@H]2OC(=O)C(CN3CCOCC3)[C@H]2c2ccccc2Br)ccc1OCc1ccccc1` (some centres unmarked) [Compound 57], for which the MIC was above 128 µg/mL.
For `C=C1C(=O)O[C@H](c2cc3ccccc3cn2)[C@@H]1C` [Compound 105], the MIC was determined as 16 µg/mL (≈ 66.9 µM).
As to `C=C1C(=O)O[C@H](c2ccc(C#N)cc2)[C@@H]1c1ccccc1` [Compound 39], the MIC was 64 µg/mL (≈ 232 µM).
Regarding `C/C=C1/C(=O)O[C@H](c2ccc(C)cc2)[C@H]1C` [Compound 104], the MIC is above 128 µg/mL.
For the molecule `C=C1C(=O)O[C@H](c2ccc(OC)cc2)[C@@H]1c1ccc(C#N)cc1` [Compound 70], the MIC came out at 32 µg/mL (≈ 105 µM).
With `N#Cc1ccc([C@H]2COC(=O)C2CN2CCCCC2)cc1` (some centres unmarked) [Compound 28], the MIC was above 128 µg/mL.
With `C=C1C(=O)O[C@H](c2ccc(O)cc2)[C@@H]1c1ccc(C#N)cc1` [Compound 4], the MIC worked out at 256 µg/mL (≈ 879 µM).
Consider `CCN(CC)CC1C(=O)O[C@H](c2ccccc2)[C@@H]1c1cccc2ccccc12` (some centres unmarked) [Compound 173], for which the MIC came out at 8 µg/mL (≈ 21.4 µM).
With `C=C1C(=O)O[C@H](c2ccc(OC)cc2)[C@@H]1c1ccc(Br)cc1` [Compound 2], the MIC is 8 µg/mL (≈ 22.3 µM).
As for `C=C1C(=O)O[C@H](c2ccc(OC)cc2)[C@@H]1c1cccc(Br)c1` [Compound 3], the MIC was determined as 8 µg/mL (≈ 22.3 µM).
Turning to `O=C1O[C@H](c2ccccc2)[C@H](c2ccccc2)C1CN1CCCCC1` (some centres unmarked) [Compound 159], the MIC is 16 µg/mL (≈ 47.7 µM).
With `Cc1ccc([C@@H]2C(S3=NCCS3)C(=O)O[C@@H]2C2CCCCC2)cc1` (some centres unmarked) [Compound 91], the MIC was above 128 µg/mL.
In the case of `C=C1C(=O)O[C@H](c2ccc(OC)cc2)[C@@H]1c1ccccc1` [Compound 75], the MIC was determined as 64 µg/mL (≈ 228 µM).
In the case of `C=C1C(=O)O[C@H](c2ccnc3ccccc23)[C@@H]1c1ccccc1` [Compound 114], the MIC was found to be 32 µg/mL (≈ 106 µM).
On to `C=C1C(=O)O[C@H](c2ccc(O)cc2)[C@@H]1c1cccc(C#N)c1` [Compound 43], for which the MIC amounted to 128 µg/mL (≈ 439 µM).
Still for that read-out and setting: the figure for `CN(C)CC1C(=O)O[C@H](c2cccc3ccccc23)[C@@H]1c1ccc2ccccc2c1` (some centres unmarked) [Compound 169] is 4 µg/mL (≈ 10.1 µM); for `C=C1C(=O)O[C@H]2[C@H]1CC/C(C)=C/CC[C@@]1(C)O[C@@H]21` [Compound 125, Parthenolide, reference compound] it is 128 µg/mL (≈ 515 µM); for `C=C1C(=O)O[C@H](c2ccccc2Br)[C@@H]1c1ccc(C#N)cc1` [Compound 12] it is 4 µg/mL (≈ 11.3 µM).
For the molecule `CCC[C@H]1COC(=O)C1CN1CCCCC1` (some centres unmarked) [Compound 41], the MIC was above 128 µg/mL.
Take `COc1ccc([C@H]2OC(=O)C(CN(C)C)[C@H]2c2ccc(C#N)cc2)cc1` (some centres unmarked) [Compound 15]: the MIC was above 128 µg/mL.
On the same count and under the same terms, to `COc1ccc([C@H]2OC(=O)[C@@H](CN(C)C)[C@H]2c2ccccc2)cc1` [Compound 8] belongs above 256 µg/mL; to `O=C1OCCC1CN1CCCCC1` (centres unmarked) [Compound 34], above 128 µg/mL; to `O=C1O[C@H](C2CCCCC2)C[C@@H]1CN1CCCCC1` [Compound 47], above 128 µg/mL.
Turning to `C=C1C(=O)O[C@H](c2ccc([N+](=O)[O-])cc2)[C@@H]1C` [Compound 102], the MIC was above 128 µg/mL.
`C=C1C(=O)O[C@H](c2ccc(C)cc2)[C@@H]1c1ccccc1` [Compound 71]: the MIC came to 32 µg/mL (≈ 121 µM).
`C=C1C(=O)O[C@H](c2ccc(OCc3ccccc3)c(OC(C)=O)c2)[C@@H]1c1ccccc1Br` [Compound 56]: the MIC was above 128 µg/mL.
Regarding `C=C(C(=O)OC)C(c1cccc2ccccc12)C(O)c1cccc2ccccc12` (centres unmarked) [Compound 145], the MIC is above 64 µg/mL.
Turning to `Cc1ccc([C@H]2OC(=O)C(CN(C)C)[C@H]2c2ccc(C#N)cc2)cc1` (some centres unmarked) [Compound 14], the MIC is above 128 µg/mL.
For the molecule `COc1ccc([C@H]2OC(=O)[C@@H](CN(C)C)[C@H]2c2ccc(C)cc2)cc1` [Compound 7], the MIC came out at 32 µg/mL (≈ 94.3 µM).
On the same count and under the same terms, to `CCN(CC)CC1C(=O)O[C@H](c2ccc3ccccc3c2)[C@H]1c1ccccc1` (some centres unmarked) [Compound 95] belongs above 128 µg/mL; to `O=C1OC2(CCCC2)CC1CN1CCCCC1` (centres unmarked) [Compound 58], above 128 µg/mL; to `C=C1C(=O)OC[C@@H]1c1ccccc1` [Compound 25], above 128 µg/mL.
For `C=C1C(=O)O[C@H](c2ccc(OC)cc2)[C@@H]1c1ccccc1Br` [Compound 78], the MIC amounted to 8 µg/mL (≈ 22.3 µM).
Still for that read-out and setting: to `C=C1C(=O)O[C@H](C2CCCCC2)[C@@H]1c1ccccc1` [Compound 106] belongs above 128 µg/mL; to `C=C1C(=O)O[C@H](c2ccccc2OC)[C@@H]1c1ccccc1Br` [Compound 40], 16 µg/mL (≈ 44.5 µM).
`C=C1C(=O)O[C@H](c2ccc3ccccc3c2)[C@@H]1c1ccccc1` [Compound 156]: the MIC came to 16 µg/mL (≈ 53.3 µM).
For the molecule `C=C1C(=O)O[C@H](c2ccccc2)[C@@H]1c1ccccc1Br` [Compound 53], the MIC worked out at 4 µg/mL (≈ 12.2 µM).
With `CC(C)(C)[Si](C)(C)OCC[C@H]1OC(=O)[C@@H](CN2CCCCC2)[C@H]1c1cccc(Br)c1` [Compound 48], the MIC was above 128 µg/mL.
Consider `O=C1O[C@H](c2ccccc2)CC1CN1CCCCC1` (some centres unmarked) [Compound 32], for which the MIC is above 128 µg/mL.
For `C=C1C(=O)O[C@H](c2cccc(F)c2F)[C@H]1c1ccccc1` [Compound 10], the MIC worked out at 16 µg/mL (≈ 55.9 µM).
